Source: patent US20140228407A1, “TETRA-PYRIDINE COMPOUNDS AND COMPOSITION FOR PROTECTING CELLS, TISSUES AND ORGANS AGAINST ISCHEMIA-REPERFUSION INJURY” (YISSUM RESEARCH DEVELOPMENT COMPANY OF THE HEBREW …, priority 2011, published 2014)
Marks after values point to notes of the source that are not given here.

Key:
Assay type in all cases: in vivo
[1] = test system: model of ischemia/reperfusion in the CD rat; assay: Rat model of ischemia/reperfusion, infarct analysis (Phase B); conditions: for Infarct/AAR (%) Mean: 4 hour reperfusion; for Infarct/AAR (%) Mean / Infarct/LV (%) Mean: rat
Method: (§1) This study was conducted to evaluate the effects of the Compound #6 on cardiac function, infarct size, and Troponin I levels in a model of ischemia/reperfusion in the CD® (CR1CD® (SD)) rat. Phase A was conducted for toxicity evaluation purposes. In Phase B (the efficacy phase), two treatment groups of eight male rats were administered Compound #6 at dose levels of 0.2 and 2 mg/kg via intravenous infusion following myocardial infarction. The 2 mg/kg dose of Compound #6 was administered intravenously via a slow infusion starting 3 to 14 minutes prior to reperfusion and continuing for 20 minutes to 20 minutes and 32 seconds, which was approximately 6 to 17 minutes after reperfusion (depending on the infusion start time). The 0.2 mg/kg dose of Compound #6 was administered intravenously via a slow infusion starting 10 minutes prior to reperfusion and continuing for 30 minutes to 30 minutes and 30 seconds, which was approximately 20 minutes after reperfusion.
The animals were placed on mechanical ventilation and […]. Once anesthetized, the animal was placed in a right lateral recumbency, an arterial catheter or polyethylene tube was placed in the carotid artery for monitoring blood pressure and a thoracotomy was performed. The left coronary artery (LCA) was identified. A ligature was placed around the LCA and the vessel was ligated. The LCA was maintained occluded for 29 to 43 minutes. Occlusion of the vessel was verified via blanching of the heart and via ST interval changes. At the end of the occlusion period, the knot was loosened leaving the ligature in place, and the vessel was allowed to reperfuse for 3 hours 27 minutes to 4 hours 51 minutes. Following infarct, a chest tube was placed, the deep and superficial muscle layers were sutured at the surgical incision, and the skin was closed with staples. The chest tube was removed after spontaneous respiration was established. In Phase A, the animals were recovered from anesthesia and evaluated for 4 days. In Phase B, animals were maintained under anesthesia for 3 hours 27 minutes to 4 hours 51 minutes prior to being submitted to necropsy.
(§2) In Phase B, Compound #6 was administered once on Day 0 via intravenous infusion at dose levels of 0.2 and 2 mg/kg. The doses were administered at a dose volume of 1 mL/kg (0.05 [2 mg/kg] or 0.033 [0.2 mg/kg] mL/kg/minute). Two control groups received the vehicle (saline) or the vehicle for Compound #6 (10% (w/v) 2-hydroxypropyl-beta-cyclodextrin and 100 mM sodium chloride in deionized water) in the same manner as the 2 mg/kg treated group. The vehicles and 2 mg/kg Compound #6 were administered intravenously via a slow infusion starting 3 to 14 minutes prior to reperfusion and continuing for 20 minutes to 20 minutes and 32 seconds, which was approximately 6 to 17 minutes after reperfusion (depending on the infusion start time). The 0.2 mg/kg Compound #6 was administered intravenously via a slow infusion starting 10 minutes prior to reperfusion and continuing for 30 minutes to 30 minutes and 30 seconds, which was approximately 20 minutes after reperfusion. The positive control article, Erythropoietin, was administered at 5000 IU/kg via a bolus intravenous injection. The positive control article dose was administered at a dose volume of 2.5 mL/kg. The positive control was administered via a 3 to 60 second injection at 5 minutes prior to reperfusion.
After LAD reperfusion (4 hours), the animals were euthanized by an intraperitoneal injection of sodium pentobarbital followed by exsanguination via severing the abdominal vena cava. The heart was flushed with heparinized Lactated Ringers Solution (LRS) until clear of blood and the LAD was tied off using the same ligature used to occlude the vessel and Evan Blue dye was injected. The heart was weighed and breadloafed (4-5 sections per animal). […]

[2] = test system: model of ischemia/reperfusion in the CD rat; assay: Rat model of ischemia/reperfusion, cardiovascular monitoring (blood pressure, heart rate; Phase B)
Method: The animals in Phase B were monitored for selected cardiovascular endpoints from at least 15 minutes prior to acute myocardial infarction until at approximately 1 hour post reperfusion. Blood samples for the evaluation of Troponin I were collected from all surviving Phase B animals prior to coronary artery occlusion and at termination. At study termination, the Phase B animals were submitted to necropsy for limited necropsy examinations and infarct analysis.
as §2
In Phase B, animals were anesthetized for monitoring of selected cardiovascular parameters. For experimentation, the blood pressure catheter implanted in the carotid artery was attached to an external transducer and data acquisition was started. Blood pressure (systolic, diastolic, and mean arterial) and heart rate (derived from blood pressure) were monitored from at least 15 minutes prior to acute myocardial infarction (AMI) until at least 1 hour after reperfusion. Individual animal cardiovascular data tables are not reported but are maintained in the study file.

[3] = test system: CD rat; assay: Toxicity evaluation in rat after myocardial ischemia (Phase A: mortality, clinical observations, body weights); conditions: dose levels up to 2 mg/kg following myocardial ischemia
Method: This study was conducted to evaluate the effects of the Compound #6 on cardiac function, infarct size, and Troponin I levels in a model of ischemia/reperfusion in the CD® (CR1CD® (SD)) rat. Phase A was conducted for toxicity evaluation purposes. In Phase B (the efficacy phase), two treatment groups of eight male rats were administered Compound #6 at dose levels of 0.2 and 2 mg/kg via intravenous infusion following myocardial infarction. […]
The animals were placed on mechanical ventilation and not intubated. […] In Phase A, the animals were recovered from anesthesia and evaluated for 4 days. […]
In Phase A, body weights for all animals were measured and recorded at receipt, prior to randomization, just prior to surgery, and daily for 3 days during the study. In Phase B, body weights for all animals were measured and recorded at receipt, prior to each randomization as applicable, and just prior to surgery, except that a body weight was not recorded prior to randomization for the animals received in the second shipment. In both phases, the body weights recorded at receipt and prior to randomization are not reported but are maintained in the study file.

[4] = test system: model of ischemia/reperfusion in the CD rat; assay: Mortality and adverse changes in Phase B of rat ischemia/reperfusion study
Method: as §1
The animals were placed on mechanical ventilation and not intubated. Once anesthetized, the animal was placed in a right lateral recumbency, an arterial catheter or polyethylene tube was placed in the carotid artery for monitoring blood pressure and a thoracotomy was performed. The left coronary artery (LCA) was identified. […] In Phase A, the animals were recovered from anesthesia and evaluated for 4 days. […]

Cc1ccc(CN(CCN(Cc2ccc(C)cn2)Cc2ccc(C)cn2)Cc2ccc(C)cn2)nc1 [Compound #6]
Infarct/AAR (%) Mean ([1]; 0.2 mg/kg intravenous infusion): 22.2±5.24% | Infarct/AAR (%) Mean ([1]; 0.2 mg/kg intravenous infusion, listed as Comp #6): 22^b % | Infarct/LV (%) Mean ([1]; 0.2 mg/kg intravenous infusion): 7% | Infarct/AAR (%) Mean ([1]; 2 mg/kg intravenous infusion): 19.1±7.38% | Infarct/AAR (%) Mean ([1]; 2 mg/kg intravenous infusion, listed as Comp #6): 19^b % | Infarct/LV (%) Mean ([1]; 2 mg/kg intravenous infusion): 7% | infarct size following ischemia-reperfusion injury, in words ([1]; either 0.2 or 2.0 mg/kg IV as an infusion, 30 minute ischemia, vs saline and vehicle controls): significant decrease in infarct size | mean arterial pressures after reperfusion ([2]; 0.2 mg/kg, within 5-10 minutes of reperfusion): increased | time at which blood pressure reached peak levels post reperfusion ([2]; 2 mg/kg, approximately 5 minutes following completion of the infusion): approximately 20 minutes | heart rate ([2]; 0.2 and 2.0 mg/kg): unaffected | blood pressures during infusion ([2]; both dose levels (0.2 and 2.0 mg/kg), returned to levels comparable to vehicle animals after infusion): slightly elevated | toxicity in the rat (overall conclusion) [3]: not associated with any toxicity | differences in mortality rates between saline animals and treated animals (Phase B) ([4]; 0.2 and 2 mg/kg vs saline): suggest a cardioprotective effect | animals that died between 3 and 4 hours post reperfusion (Phase B) ([4]; Group 5, 0.2 mg/kg): two
